Experimental data: patent US8575091B1, “Amylin analogues and pharmaceutical compositions thereof” (Novo Nordisk A/S, priority 2012, dated 2013)
Numbered stars: 1 amine (or outer) side, 2 acyl side, 3 side chain; on linkers, the order of the positions; unused ones are H or OH. Bridge positions count the residues as written; N and C are the ends. Peptide text beside a SMILES is read from it. * marks the point of attachment. C20 diacid = O=C(O)CCCCCCCCCCCCCCCCCCC(=O)*; γGlu = O=C(O)[C@H](CCC(=O)[*:2])N[*:1]

Experiments:
[1] = target: T1, human amylin receptor (Homo sapiens, UniProt O60896+P30988); assay: Assay (V) binding to the human amylin receptor (SPA, 125I-rat amylin)
T1 construct: expressed in transfected cells
T1 sequence (P30988 25-474): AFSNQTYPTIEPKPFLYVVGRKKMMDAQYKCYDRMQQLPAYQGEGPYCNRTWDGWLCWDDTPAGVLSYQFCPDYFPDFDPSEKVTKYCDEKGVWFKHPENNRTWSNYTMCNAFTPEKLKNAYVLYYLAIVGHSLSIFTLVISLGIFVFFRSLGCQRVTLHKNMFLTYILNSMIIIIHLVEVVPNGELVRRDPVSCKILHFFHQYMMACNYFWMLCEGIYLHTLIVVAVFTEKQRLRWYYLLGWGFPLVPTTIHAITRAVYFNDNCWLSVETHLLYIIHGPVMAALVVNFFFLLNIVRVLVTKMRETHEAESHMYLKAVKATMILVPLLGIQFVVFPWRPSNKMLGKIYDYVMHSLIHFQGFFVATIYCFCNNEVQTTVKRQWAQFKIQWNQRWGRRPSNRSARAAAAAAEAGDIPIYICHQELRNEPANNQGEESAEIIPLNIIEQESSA
T1 sequence (O60896 24-148 partner): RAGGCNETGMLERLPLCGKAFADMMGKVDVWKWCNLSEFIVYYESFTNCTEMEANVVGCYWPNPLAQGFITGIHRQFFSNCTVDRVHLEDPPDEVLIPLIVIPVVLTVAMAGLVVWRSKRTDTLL
Method: The binding assay was performed using scintillation proximity assay (SPA) beads (RPNQ0001) from PerkinElmer and cell membranes from the Amylin 3(a)/CRE-luc cells (as described in Assay (II)) were used. Membranes were prepared in the following way; the cells were rinsed with PBS and incubated with Versene for approximately 5 min before harvesting. The cells were flushed with PBS and the cell-suspension was centrifuged for 5 min at 1000 rpm. […] The resulting pellet was resuspended in buffer 2 and protein concentration was measured (BCA protein Assay, Pierce). The homogenate was kept cold during the whole procedure. The membranes were kept at −80° C. until use. The assay was performed in a 384 well Optiplate (PerkinElmer) in a total volume of 40 ul. Membranes were mixed with SPA beads. Final concentration of membranes 35 ng/μL final and SPA beads was 0.05 mg/well. Test-compounds were dissolved in DMSO and further diluted in assay buffer (50 mM Hepes, pH 7.4, 1 mM CaCl2, 5 mM MgCl2, 0.1% OA and 0.02% Tween20). […] Samples were analyzed on TopCounter™ (Packard). The IC50 was calculated using (one site binding competition analysis) GraphPad Prism5 as a measure of receptor affinity.

[2] = target: T2, human amylin receptor (amylin 3(a) receptor: human calcitonin receptor + RAMP-3) (Homo sapiens, UniProt O60896+P30988); assay: Assay (II)a functional assay, human amylin receptor (CRE luciferase, BHK cells); type: cell-based
T2 construct: expressed in transfected cells
T2 sequence (P30988 25-474): T1 sequence (P30988 25-474)
T2 sequence (O60896 24-148 partner): T1 sequence (O60896 24-148 partner)

[3] = human binding ratio, included for comparison
[4] = Table 6, human functional selectivity (hCTR EC50 / hAmylin-R EC50)
[5] = Table 7b, human calcitonin receptor binding IC50 divided by human amylin receptor binding IC50
[6] = Table 7c, human calcitonin receptor binding IC50 divided by human amylin receptor binding IC50

| SMILES | Ratio hCT/hAmylin binding [1, 3] | Ratio hCT/hAmylin funct. [2, 4] | Ratio hCT/hAmylin funct. ([2]; hCTR funct. EC50 divided by hAmylin-R funct. EC50) | Ratio hCT/hAmylin binding [1, 5] | Ratio hCT/hAmylin binding [1, 6] | Ratio hCT/hAmylin funct. ([2]; Table 6a, human functional selectivity (hCTR EC50 / hAmylin-R EC50), at least 5) | Ratio hCT/hAmylin funct. ([2]; Table 6i, hCTR funct. EC50 / hAmylin-R funct. EC50) | IC50 ([1]; human amylin receptor membranes, SPA, read-out: hAmylin-R bind IC50) [nM] |
| --- | --- | --- | --- | --- | --- | --- | --- | --- |
| CC[C@H](C)[C@H](NC(=O)[C@H](C)NC(=O)CNC(=O)[C@H](Cc1ccccc1)NC(=O)[C@H](CC(N)=O)NC(=O)[C@@H]1CCCN1C(=O)[C@H](CO)NC(=O)[C@H](CO)NC(=O)[C@H](Cc1c[nH]cn1)NC(=O)[C@H](CCCNC(=N)N)NC(=O)[C@H](CC(C)C)NC(=O)[C@H](Cc1ccccc1)NC(=O)[C@H](CCC(=O)O)NC(=O)[C@H](C)NC(=O)[C@H](CC(C)C)NC(=O)[C@H](CCCNC(=N)N)NC(=O)[C@H](CCC(N)=O)NC(=O)[C@@H](NC(=O)[C@H](C)NC(=O)[C@@H]1CSSC[C@H](NC(=O)[C@H](CCCCN)NC(=O)CC[C@H](NC(=O)CCCCCCCCCCCCCCCCCCC(=O)O)C(=O)O)C(=O)N[C@@H](CC(N)=O)C(=O)N[C@@H]([C@@H](C)O)C(=O)N[C@@H](C)C(=O)N[C@@H]([C@@H](C)O)C(=O)N1)[C@@H](C)O)C(=O)N[C@@H](CC(C)C)C(=O)N1CCC[C@H]1C(=O)N[C@@H](CO)C(=O)N[C@H](C(=O)N[C@@H](CC(N)=O)C(=O)N[C@H](C(=O)NCC(=O)N[C@@H](CO)C(=O)N[C@@H](CCC(=O)O)C(=O)N[C@H](C(=O)N[C@@H](Cc1ccc(O)cc1)C(N)=O)[C@@H](C)O)C(C)C)[C@@H](C)O [Example 33] ({C20 diacid-γGlu}-KCNTATCATQRLAEFLRHSSPNFGAILPSTNVGSETY-NH2; disulfide 2-7) | 3.9 | 2.2 | 2.2 |  |  |  |  |  |
| CC[C@H](C)[C@H](NC(=O)[C@@H]1CCCN1C(=O)CNC(=O)[C@H](Cc1ccccc1)NC(=O)[C@H](CC(N)=O)NC(=O)[C@@H]1CCCN1C(=O)[C@H](CO)NC(=O)[C@H](CO)NC(=O)[C@H](Cc1c[nH]cn1)NC(=O)[C@H](CCCNC(=N)N)NC(=O)[C@H](CC(C)C)NC(=O)[C@H](Cc1ccccc1)NC(=O)[C@H](CCC(=O)O)NC(=O)[C@H](C)NC(=O)[C@H](CC(C)C)NC(=O)[C@H](CCCNC(=N)N)NC(=O)[C@H](CCC(N)=O)NC(=O)[C@@H](NC(=O)[C@H](C)NC(=O)[C@@H]1CSSC[C@H](NC(=O)[C@H](CCCCN)NC(=O)CC[C@H](NC(=O)CCCCCCCCCCCCCCCCCCC(=O)O)C(=O)O)C(=O)N[C@@H](CC(N)=O)C(=O)N[C@@H]([C@@H](C)O)C(=O)N[C@@H](C)C(=O)N[C@@H]([C@@H](C)O)C(=O)N1)[C@@H](C)O)C(=O)N[C@@H](CC(C)C)C(=O)N1CCC[C@H]1C(=O)N1CCC[C@H]1C(=O)N[C@H](C(=O)N[C@@H](CC(N)=O)C(=O)N[C@H](C(=O)NCC(=O)N[C@@H](CO)C(=O)N[C@@H](CC(N)=O)C(=O)N[C@H](C(=O)N[C@@H](Cc1ccc(O)cc1)C(N)=O)[C@@H](C)O)C(C)C)[C@@H](C)O [Example 6] ({C20 diacid-γGlu}-KCNTATCATQRLAEFLRHSSPNFGPILPPTNVGSNTY-NH2; disulfide 2-7) | 20.0 | 5.7 |  | 20.0 | 20.0 | 5.7 | 5.7 |  |
| CC[C@H](C)[C@H](NC(=O)[C@H](C)NC(=O)CNC(=O)[C@H](Cc1ccccc1)NC(=O)[C@H](CC(N)=O)NC(=O)[C@@H]1CCCN1C(=O)[C@H](CO)NC(=O)[C@H](CO)NC(=O)[C@H](Cc1c[nH]cn1)NC(=O)[C@H](CCCNC(=N)N)NC(=O)[C@H](CC(C)C)NC(=O)[C@H](Cc1ccccc1)NC(=O)[C@H](CCC(=O)O)NC(=O)[C@H](C)NC(=O)[C@H](CC(C)C)NC(=O)[C@H](CCCNC(=N)N)NC(=O)[C@H](CCC(N)=O)NC(=O)[C@@H](NC(=O)[C@H](C)NC(=O)[C@@H]1CSSC[C@H](NC(=O)[C@H](CCCCN)NC(=O)CC[C@H](NC(=O)CCCCCCCCCCCCCCCCCCC(=O)O)C(=O)O)C(=O)N[C@@H](CC(N)=O)C(=O)N[C@@H]([C@@H](C)O)C(=O)N[C@@H](C)C(=O)N[C@@H]([C@@H](C)O)C(=O)N1)[C@@H](C)O)C(=O)N1CCC[C@H]1C(=O)N[C@@H](CO)C(=O)N1CCC[C@H]1C(=O)N[C@H](C(=O)N[C@@H](CC(N)=O)C(=O)N[C@H](C(=O)NCC(=O)N[C@@H](CO)C(=O)N[C@@H](CC(N)=O)C(=O)N[C@H](C(=O)N[C@@H](Cc1ccc(O)cc1)C(N)=O)[C@@H](C)O)C(C)C)[C@@H](C)O [Example 37] ({C20 diacid-γGlu}-KCNTATCATQRLAEFLRHSSPNFGAIPSPTNVGSNTY-NH2; disulfide 2-7) | 2.3 | 4.0 |  |  |  |  |  |  |
| CC[C@H](C)[C@H](NC(=O)[C@H](C)NC(=O)CNC(=O)[C@H](Cc1ccccc1)NC(=O)[C@H](CC(N)=O)NC(=O)[C@@H]1CCCN1C(=O)[C@H](CO)NC(=O)[C@H](CO)NC(=O)[C@H](Cc1c[nH]cn1)NC(=O)[C@H](CCCNC(=N)N)NC(=O)[C@H](CC(C)C)NC(=O)[C@H](Cc1ccccc1)NC(=O)[C@H](CC(N)=O)NC(=O)[C@H](C)NC(=O)[C@H](CC(C)C)NC(=O)[C@H](CCCNC(=N)N)NC(=O)[C@H](CCC(N)=O)NC(=O)[C@@H](NC(=O)[C@H](C)NC(=O)[C@@H]1CSSC[C@H](NC(=O)[C@@H](N)CCCCNC(=O)COCCOCCNC(=O)CC[C@H](NC(=O)CCCCCCCCCCCCCCCCCCC(=O)O)C(=O)O)C(=O)N[C@@H](CC(N)=O)C(=O)N[C@@H]([C@@H](C)O)C(=O)N[C@@H](C)C(=O)N[C@@H]([C@@H](C)O)C(=O)N1)[C@@H](C)O)C(=O)N1CCC[C@H]1C(=O)N[C@@H](CO)C(=O)N[C@@H](CO)C(=O)N[C@H](C(=O)N[C@@H](CC(N)=O)C(=O)N[C@H](C(=O)NCC(=O)N[C@@H](CO)C(=O)N[C@@H](CCCNC(=N)N)C(=O)N[C@H](C(=O)N[C@@H](Cc1ccc(O)cc1)C(N)=O)[C@@H](C)O)C(C)C)[C@@H](C)O [Example 38] |  |  |  |  |  |  |  | 0.249 |
| CC[C@H](C)[C@H](NC(=O)[C@H](C)NC(=O)CNC(=O)[C@H](Cc1ccccc1)NC(=O)[C@H](CC(N)=O)NC(=O)[C@@H]1CCCN1C(=O)[C@H](CO)NC(=O)[C@H](CO)NC(=O)[C@H](Cc1c[nH]cn1)NC(=O)[C@H](CCCNC(=N)N)NC(=O)[C@H](CC(C)C)NC(=O)[C@H](Cc1ccccc1)NC(=O)[C@H](CC(N)=O)NC(=O)[C@H](C)NC(=O)[C@H](CC(C)C)NC(=O)[C@H](CCCNC(=N)N)NC(=O)[C@H](CCC(N)=O)NC(=O)[C@@H](NC(=O)[C@H](C)NC(=O)[C@@H]1CSSC[C@H](NC(=O)[C@H](CCCCN)NC(=O)CC[C@H](NC(=O)CCCCCCCCCCCCCCCCCCC(=O)O)C(=O)O)C(=O)N[C@@H](CC(N)=O)C(=O)N[C@@H]([C@@H](C)O)C(=O)N[C@@H](C)C(=O)N[C@@H]([C@@H](C)O)C(=O)N1)[C@@H](C)O)C(=O)N1CCC[C@H]1C(=O)N[C@@H](CO)C(=O)N[C@@H](CO)C(=O)N[C@H](C(=O)N[C@@H](CC(N)=O)C(=O)N[C@H](C(=O)NCC(=O)N[C@@H](CCCNC(=N)N)C(=O)N[C@@H](CC(N)=O)C(=O)N[C@H](C(=O)N[C@@H](Cc1ccc(O)cc1)C(N)=O)[C@@H](C)O)C(C)C)[C@@H](C)O [Example 39] ({C20 diacid-γGlu}-KCNTATCATQRLANFLRHSSPNFGAIPSSTNVGRNTY-NH2; disulfide 2-7) | 29.0 |  |  | 29.0 | 29.0 |  |  |  |
